# Test results from US10807952B2 (Achillion Pharmaceuticals, Inc., priority 2015, dated 2020).
# Target: Human Factor D (Homo sapiens (Human), UniProt P00746)
# Assay: Human Factor D assay (Z-L-Lys-SBzl / DTNB, absorbance at 405 nm)
# Format: biochemical
# Settings: Table 3; Human Factor D 80 nM, assay of Example 13
# Method: Human Factor D (purified from human serum, Complement Technology, Inc.) at 80 nM final concentration was incubated with test compound at various concentrations for 5 minutes at room temperature in 50 mM Tris, 1M NaCl, pH 7.5. A synthetic substrate Z-L-Lys-SBzl and DTNB (Ellman's reagent) were added to final concentrations of 100 μM each. […] IC50 values were calculated by nonlinear regression of complement Factor D reaction rates as a function of test compound concentration.
# Human Factor D, sequence (P00746 26-253): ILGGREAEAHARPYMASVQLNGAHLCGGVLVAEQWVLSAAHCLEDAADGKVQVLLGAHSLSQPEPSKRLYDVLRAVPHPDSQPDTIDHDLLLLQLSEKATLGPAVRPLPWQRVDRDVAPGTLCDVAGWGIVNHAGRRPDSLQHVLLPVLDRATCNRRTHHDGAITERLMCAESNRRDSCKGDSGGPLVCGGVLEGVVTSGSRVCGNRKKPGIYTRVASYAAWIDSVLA
row,SMILES,IC50
1,"O=C(Nc1cccc(-c2ccccc2Cl)c1F)[C@@H]1C[C@@H](F)CN1C(=O)Cc1cccc(Br)n1 [Compound 41, (2S,4R)-1-(2-(6-bromopyridin-2-yl)acetyl)-N-(2′-chloro-2-fluorobiphenyl-3-yl)-4-fluoropyrrolidine-2-carboxamide]",1 to 10 µM
2,"NC(=O)c1cccc(CC(=O)N2C[C@H](F)C[C@H]2C(=O)Nc2cccc(-c3ccccc3Cl)c2F)c1 [Compound 21, (2S,4R)-1-(2-(3-carbamoylphenyl)acetyl)-N-(2′-chloro-2-fluorobiphenyl-3-yl)-4-fluoropyrrolidine-2-carboxamide]",< 1 µM
3,"NC(=O)c1nn(CC(=O)N2C[C@H](F)C[C@H]2C(=O)Nc2cccc(-c3n[nH]c4ccsc34)c2F)c2ccccc12 [Compound 71, 1-(2-((2S,4R)-4-Fluoro-2-((2-fluoro-3-(1H-thieno[3,2-c]pyrazol-3-yl)phenyl)carbamoyl)pyrrolidin-1-yl)-2-oxoethyl)-1H-indazole-3-carboxamide]",< 1 µM
4,"NC(=O)c1nn(CC(=O)N2C[C@H](F)C[C@H]2C(=O)Nc2cccc(-c3ccc4nonc4c3)c2F)c2ccccc12 [Compound 68, 1-(2-((2S,4R)-2-(3-(benzo[c][1,2,5]oxadiazol-5-yl)-2-fluorophenyl-carbamoyl)-4-fluoropyrrolidin-1-yl)-2-oxoethyl)-1H-indazole-3-carboxamide]",< 1 µM
5,"NC(=O)c1nn(CC(=O)N2C[C@H](F)C[C@H]2C(=O)Nc2cccc(-c3ccc4scnc4c3)c2F)c2ccccc12 [Compound 52, 1-(2-((2S,4R)-2-(3-(benzo[d]thiazol-5-yl)-2-fluorophenyl-carbamoyl)-4-fluoropyrrolidin-1-yl)-2-oxoethyl)-1H-indazole-3-carboxamide]",< 1 µM
6,"NC(=O)c1nn(CC(=O)N2C[C@H](F)C[C@H]2C(=O)Nc2cccc(-c3ccccc3Cl)c2F)c2cc(Cn3cc(C4CC4)nn3)sc12 [Compound 19, 1-(2-((2S,4R)-2-((2′-Chloro-2-fluoro-[1,1′-biphenyl]-3-yl)carbamoyl)-4-fluoropyrrolidin-1-yl)-2-oxoethyl)-5-((4-cyclopropyl-1H-1,2,3-triazol-1-yl)methyl)-1H-thieno[3,2-c]pyrazole-3-carboxamide]",< 1 µM
7,"COc1cc(Br)cc(CC(=O)N2C[C@H](F)C[C@H]2C(=O)Nc2cccc(-c3ccccc3Cl)c2F)c1 [Compound 48, (2S,4R)-1-(2-(3-bromo-5-methoxyphenyl)acetyl)-N-(2′-chloro-2-fluorobiphenyl-3-yl)-4-fluoropyrrolidine-2-carboxamide]",< 1 µM
8,"N#Cc1cccc(CC(=O)N2C[C@H](F)C[C@H]2C(=O)Nc2cccc(-c3ccccc3Cl)c2F)c1 [Compound 24, (2S,4R)-N-(2′-chloro-2-fluorobiphenyl-3-yl)-1-(2-(3-cyanophenyl)acetyl)-4-fluoropyrrolidine-2-carboxamide]",< 1 µM
9,NC(=O)c1nn(CC(=O)N2C[C@H](F)C[C@H]2C(=O)Nc2cccc(-c3ccc4cn[nH]c4c3Cl)c2F)c2ccccc12 [Compound 47],< 1 µM
10,"NC(=O)c1nn(CC(=O)N2C[C@H](F)C[C@H]2C(=O)Nc2cccc(-c3ccc4[nH]c(=O)[nH]c4c3Cl)c2F)c2ccccc12 [Compound 11, 1-(2-((2S,4R)-2-((3-(4-Chloro-2-oxo-2,3-dihydro-1H-benzo[d]imidazol-5-yl)-2-fluorophenyl)carbamoyl)-4-fluoropyrrolidin-1-yl)-2-oxoethyl)-1H-indazole-3-carboxamide]",< 1 µM
11,"NC(=O)c1nn(CC(=O)N2C[C@H](F)C[C@H]2C(=O)Nc2cccc(-c3cnc4nc[nH]c4c3Cl)c2F)c2ccccc12 [Compound 50, 1-(2-((2S,4R)-2-(3-(7-chloro-1H-imidazo[4,5-b]pyridin-6-yl)-2-fluorophenyl-carbamoyl)-4-fluoropyrrolidin-1-yl)-2-oxoethyl)-1H-indazole-3-carboxamide]",< 1 µM
12,"Cc1cc2c(s1)c(C(=N)N)nn2CC(=O)N1C[C@H](F)C[C@H]1C(=O)Nc1cccc(-c2ccccc2Cl)c1F [Compound 73, (2S,4R)-1-(2-(3-carbamimidoyl-5-methyl-1H-thieno[3,2-c]pyrazol-1-yl)acetyl)-N-(2′-chloro-2-fluorobiphenyl-3-yl)-4-fluoropyrrolidine-2-carboxamide]",< 1 µM
13,"CC(=O)n1cc(CC(=O)N2C[C@H](F)C[C@H]2C(=O)Nc2cccc(Br)n2)c2ccc(-c3cnc(C)nc3)cc21 [Compound 61, (2S,4R)-1-(2-(1-acetyl-6-(2-methylpyrimidin-5-yl)-1H-indol-3-yl)acetyl)-N-(6-bromopyridin-2-yl)-4-fluoropyrrolidine-2-carboxamide]",< 1 µM
14,"C[C@H](O)c1nc2c(Cl)c(-c3cccc(NC(=O)[C@@H]4C[C@@H](F)CN4C(=O)Cn4nc(C(N)=O)c5ccccc54)c3F)ccc2[nH]1 [Compound 14, 1-(2-((2S,4R)-2-((3-(7-Chloro-2-((S)-1-hydroxyethyl)-1H-benzo[d]imidazol-6-yl)-2-fluorophenyl)carbamoyl)-4-fluoropyrrolidin-1-yl)-2-oxoethyl)-1H-indazole-3-carboxamide]",< 1 µM

# Same assay, conditions: Table 4; Human Factor D 80 nM, assay of Example 13
row,SMILES,IC50
1,"CC(=O)c1nn(CC(=O)N2C[C@H](F)C[C@H]2C(=O)Nc2cccc(-c3cc(C(=O)NC#N)ccc3Cl)c2F)c2ccccc12 [Compound 95, (2S,4R)-1-(2-(3-acetyl-1H-indazol-1-yl)acetyl)-N-(2′-chloro-5′-(cyanocarbamoyl)-2-fluoro-[1,1′-biphenyl]-3-yl)-4-fluoropyrrolidine-2-carboxamide]",< 1 µM
2,"CC(=O)c1nn(CC(=O)N2C[C@H](F)C[C@H]2C(=O)Nc2cccc(-c3ccc4nc(N)sc4c3)c2F)c2ccccc12 [Compound 101, (2S,4R)-1-(2-(3-acetyl-1H-indazol-1-yl)acetyl)-N-(3-(2-aminobenzo[d]thiazol-6-yl)-2-fluorophenyl)-4-fluoropyrrolidine-2-carboxamide]",< 1 µM
3,"CC(=O)c1nn(CC(=O)N2C[C@H](F)C[C@H]2C(=O)Nc2cccc(-c3ccc4nccnc4c3)c2F)c2ccccc12 [Compound 83, (2S,4R)-1-(2-(3-acetyl-1H-indazol-1-yl)acetyl)-4-fluoro-N-(2-fluoro-3-(quinoxalin-6-yl)phenyl)pyrrolidine-2-carboxamide]",< 1 µM
4,"NC(=O)c1nn(CC(=O)N2C[C@H](F)C[C@H]2C(=O)Nc2cccc(-c3ccc4c(c3)C(=O)CCC4)c2F)c2ccccc12 [Compound 93, 1-(2-((2S,4R)-4-fluoro-2-((2-fluoro-3-(8-oxo-5,6,7,8-tetrahydronaphthalen-2-yl)phenyl)carbamoyl)pyrrolidin-1-yl)-2-oxoethyl)-1H-indazole-3-carboxamide]",< 1 µM
5,"COC(=O)c1cc(-c2cccc(NC(=O)[C@@H]3C[C@@H](F)CN3C(=O)Cn3nc(C(N)=O)c4ccccc43)c2F)cc2[nH]c(NC(=O)OC(C)(C)C)nc12 [Compound 75, methyl 2-((tert-butoxycarbonyl)amino)-6-(3-((2S,4R)-1-(2-(3-carbamoyl-1H-indazol-1-yl)acetyl)-4-fluoropyrrolidine-2-carboxamido)-2-fluorophenyl)-1H-benzo[d]imidazole-4-carboxylate]",> 10 µM
6,"COC(=O)Nc1nc2ccc(-c3cccc(NC(=O)[C@@H]4C[C@@H](F)CN4C(=O)Cn4nc(C(C)=O)c5ccccc54)c3F)c(Cl)c2[nH]1 [Compound 81, methyl (6-(3-((2S,4R)-1-(2-(3-acetyl-1H-indazol-1-yl)acetyl)-4-fluoropyrrolidine-2-carboxamido)-2-fluorophenyl)-7-chloro-1H-benzo[d]imidazol-2-yl)carbamate]",< 1 µM
